From ChEMBL document CHEMBL3639321, “Triazolopyridine compounds as PIM kinase inhibitors” (2013)

Experiments:
[1] = biological target: Serine/threonine-protein kinase pim-3 (Rattus norvegicus, UniProt O70444); experiment: (§1) PIM-3 Enzyme Assay: The assay for the determination of PIM activity is based on the incorporation of [33P] ATP into PIM2tide substrate and capture of the radiolabeled peptide onto a Whatman P81 (phosphocellulose) filter plate. Assay mixtures contained 30 uM [gamma-33P] ATP (20 uCi/mL), 3.75 uM PIM2tide and 0.5 nM recombinant rat PIM-3 in place of PIM-1.
[2] = biological target: Serine/threonine-protein kinase pim-2 (Homo sapiens, UniProt Q9P1W9); experiment: as §1, with “PIM-2” for “PIM-3”, “4” for “30”, “1.0” for “3.75”, “[…] PIM-2” for “0.5 nM recombinant rat PIM-3”
Sequence of Serine/threonine-protein kinase pim-2 (Q9P1W9 whole entry): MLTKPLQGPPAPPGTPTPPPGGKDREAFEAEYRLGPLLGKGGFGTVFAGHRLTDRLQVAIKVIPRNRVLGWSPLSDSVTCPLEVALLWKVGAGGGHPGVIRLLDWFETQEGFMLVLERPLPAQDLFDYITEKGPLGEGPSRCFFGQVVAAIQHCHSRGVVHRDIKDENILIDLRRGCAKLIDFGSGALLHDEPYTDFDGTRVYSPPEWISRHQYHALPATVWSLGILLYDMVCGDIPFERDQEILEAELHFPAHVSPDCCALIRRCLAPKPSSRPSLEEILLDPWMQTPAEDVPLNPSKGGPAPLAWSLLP

CC1(C)CC(Nc2cccc3ccc(-c4nnc5ccccn45)nc23)CC(C)(C)N1 was tested, and the IC50 [1] was 448 nM and the IC50 [2] was at least 10000 nM.
